Experimental data published in publication PMC10458458, “Characterization of Anticancer Effects of the Analogs of DJ4, a Novel Selective Inhibitor of ROCK and MRCK Kinases” (Pharmaceuticals, 2023).
Entries after “also recorded” stand apart in the source; their conditions may differ.

Experiments:
[1] = Solubility in culture media at 10 µM (observation); assay type: physicochemical; details: NCI-60 screening
Procedure: To study the effectiveness of these analogs in a vast range of cancer cell lines, the compounds were subjected to cell viability screening in the NCI-60 human cancer cell line panel representing nine different cancer types (Supplementary Figure S2). Testing of the compounds in such a wide range of cancer types helps identify sensitivity and selectivity of specific types of cancers to the novel compounds. The initial screening was performed at a single concentration of 10 µM. At 10 µM, both DJ110 and DJ-Morpholine were insoluble and were, therefore, ineffective. The parental DJ4 compound was effective in a wide spectrum of cancer cell lines, with breast cancer, NSCLC, and central nervous system cancers displaying the most consistent response. The ovarian cancer cell line NCI/ADR-RES and HCC-2998 colon cancer cells were relatively resistant to DJ4 (IC50 > 10 µM) (Supplementary Figure S2). […] NCI/ADR-RES (ovarian), RPMI-8226, and K-562 (leukemia) cell lines were relatively resistant (29%, 29%, 26% increase in cell number) to DJE4. […] Two CNS cell lines, SNB-75 and SF-539, were the most sensitive in which DJ-Allyl induced the cell death (60% reduction in cell number). NCI/ADR-RES (ovarian), MALME-3M (melanoma), HCC-2998 (colon), RPMI-8226, and K-562 (leukemia) were relatively resistant (~40% increase in cell number) to DJ-Allyl. […]

[2] = test system: NCI-60 human cancer cell line panel; experiment: NCI-60 single concentration screen, whole panel; assay type: cell-based; details: single concentration 10 µM
Description: The selected active compounds were screened at NCI, as a part of In Vitro Cell Line Screening Project (IVCLSP), for their effect on cell growth in 60 different cancer cell lines. The 60 human cancer cell line panel included leukemia, melanoma, non-small cell lung cancer, colon, central nervous system (CNS), ovarian, renal, prostate, and breast cancer cell lines. The detailed procedure and applications of NCI-60 cell line screening can be found at https://dtp.cancer.gov/discovery_development/nci-60/default.htm (accessed on 9 January 2023). Briefly, cells were plated in 96-well plates and incubated for 24 h. One set of cells was fixed with trichloroacetic acid at time 0 h (Tz), and SRB (sulphorhodamine B) assays were performed to quantify the cells. The remaining set of cells were treated with 10 µM single concentration of each compound and incubated for 48 h (Te) after which the cells were fixed, and the SRB assays were performed. Data are presented as percent growth relative to the control as 100% according to the following calculations:
When Te >/= Tz. Growth(%)=Te−Tz/C−Tz∗100 and when Te < Tz. (1) Growth(%)=Te−Tz/Tz∗100
Values between 0–100 indicate cell growth, zero (0) indicates no cell growth, values < 0 indicate cell death.

ROCK2 = ROCK2 (Homo sapiens, UniProt O75116); experiment: KINOMEscan competition binding assay; design: purchased DiscoverX Corporation (Lead Hunter Discovery Services, KINOMEscan); details: ROCK2, 10 µM
Sequence of ROCK2 (O75116 whole entry): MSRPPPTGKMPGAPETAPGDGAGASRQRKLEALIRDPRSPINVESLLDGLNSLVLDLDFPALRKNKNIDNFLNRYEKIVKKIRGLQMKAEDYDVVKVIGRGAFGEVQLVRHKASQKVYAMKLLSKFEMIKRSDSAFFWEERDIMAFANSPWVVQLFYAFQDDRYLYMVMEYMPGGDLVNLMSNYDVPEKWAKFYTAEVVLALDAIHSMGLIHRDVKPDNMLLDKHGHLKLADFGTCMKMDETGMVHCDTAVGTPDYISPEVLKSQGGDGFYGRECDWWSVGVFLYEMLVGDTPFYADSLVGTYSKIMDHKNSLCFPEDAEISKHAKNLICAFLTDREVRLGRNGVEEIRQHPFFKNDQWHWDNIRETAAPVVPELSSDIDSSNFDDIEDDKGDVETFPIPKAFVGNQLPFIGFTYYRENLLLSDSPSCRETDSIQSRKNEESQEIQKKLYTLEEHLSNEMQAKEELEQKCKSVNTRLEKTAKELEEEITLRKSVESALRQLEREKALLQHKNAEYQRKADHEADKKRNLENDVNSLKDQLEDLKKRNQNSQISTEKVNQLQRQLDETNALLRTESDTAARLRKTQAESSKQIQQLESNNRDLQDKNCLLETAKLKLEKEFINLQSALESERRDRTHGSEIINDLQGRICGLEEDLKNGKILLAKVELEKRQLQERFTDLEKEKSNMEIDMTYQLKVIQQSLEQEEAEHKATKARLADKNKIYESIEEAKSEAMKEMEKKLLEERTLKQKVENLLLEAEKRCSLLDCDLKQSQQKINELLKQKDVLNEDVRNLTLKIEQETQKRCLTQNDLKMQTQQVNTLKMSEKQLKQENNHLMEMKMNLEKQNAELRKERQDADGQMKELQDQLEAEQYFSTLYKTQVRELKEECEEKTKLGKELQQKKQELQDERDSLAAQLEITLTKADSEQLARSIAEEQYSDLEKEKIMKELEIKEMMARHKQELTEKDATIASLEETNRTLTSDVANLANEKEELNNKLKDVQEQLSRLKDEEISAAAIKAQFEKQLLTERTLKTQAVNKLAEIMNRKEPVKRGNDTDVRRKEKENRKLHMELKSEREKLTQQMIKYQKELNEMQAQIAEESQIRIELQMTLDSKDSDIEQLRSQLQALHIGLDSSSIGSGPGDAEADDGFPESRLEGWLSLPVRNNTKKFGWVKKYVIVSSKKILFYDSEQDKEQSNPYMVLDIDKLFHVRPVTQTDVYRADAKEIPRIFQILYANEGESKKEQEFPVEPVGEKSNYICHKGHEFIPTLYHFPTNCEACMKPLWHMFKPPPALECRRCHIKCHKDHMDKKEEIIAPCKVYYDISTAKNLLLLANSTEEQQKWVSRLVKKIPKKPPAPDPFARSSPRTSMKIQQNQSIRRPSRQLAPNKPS
Description: (§1) To examine specificity of DJ4 to different human kinases, we performed a KINOMEscan profiling assay (DiscoverX, Fremont, CA, USA). The KINOMEscan assay consists of a panel of more than 480 kinases of different classes (TK/TKL/STE/CK1/AGC/CAMK/CMGC/others), including clinically relevant mutants, atypical kinases, lipid, and pathogen kinases. […] However, we also recognized the limitations of DJ4 that preclude its clinical development and the need for further optimization of the DJ4 chemotype.
(§2) The KINOMEscan®, in vitro competition binding assay, was performed by Lead Hunter Discovery Services (DiscoverX Corporation, Fremont, CA, USA) to determine the kinase specificity of DJ4, a novel kinase inhibitor [19, 44]. The KINOMEscan® panel consists of more than 480 kinases, including clinically relevant mutants, lipid, atypical, and pathogen kinases, plus a growing panel of activation-state specific assays. The primary screen was performed using a single concentration of 10 µM, and the results for DJ4 binding interactions are reported as percent of control (%Ctrl). The %Ctrl is calculated as follows: [(DJ4 signal-positive control signal)/(negative control DMSO signal-positive control signal)] x […]. The human kinome tree annotation for DJ4 is plotted with Reaction Biology’s Kinase Mapper and KinMap web interface tool http://kinhub.org/kinmap (accessed on 09 January 2023).

ROCK1 = ROCK1 (Homo sapiens, UniProt Q13464); experiment: KINOMEscan competition binding assay; design: purchased DiscoverX Corporation (Lead Hunter Discovery Services, KINOMEscan); details: ROCK1, 10 µM
Sequence of ROCK1 (Q13464 whole entry): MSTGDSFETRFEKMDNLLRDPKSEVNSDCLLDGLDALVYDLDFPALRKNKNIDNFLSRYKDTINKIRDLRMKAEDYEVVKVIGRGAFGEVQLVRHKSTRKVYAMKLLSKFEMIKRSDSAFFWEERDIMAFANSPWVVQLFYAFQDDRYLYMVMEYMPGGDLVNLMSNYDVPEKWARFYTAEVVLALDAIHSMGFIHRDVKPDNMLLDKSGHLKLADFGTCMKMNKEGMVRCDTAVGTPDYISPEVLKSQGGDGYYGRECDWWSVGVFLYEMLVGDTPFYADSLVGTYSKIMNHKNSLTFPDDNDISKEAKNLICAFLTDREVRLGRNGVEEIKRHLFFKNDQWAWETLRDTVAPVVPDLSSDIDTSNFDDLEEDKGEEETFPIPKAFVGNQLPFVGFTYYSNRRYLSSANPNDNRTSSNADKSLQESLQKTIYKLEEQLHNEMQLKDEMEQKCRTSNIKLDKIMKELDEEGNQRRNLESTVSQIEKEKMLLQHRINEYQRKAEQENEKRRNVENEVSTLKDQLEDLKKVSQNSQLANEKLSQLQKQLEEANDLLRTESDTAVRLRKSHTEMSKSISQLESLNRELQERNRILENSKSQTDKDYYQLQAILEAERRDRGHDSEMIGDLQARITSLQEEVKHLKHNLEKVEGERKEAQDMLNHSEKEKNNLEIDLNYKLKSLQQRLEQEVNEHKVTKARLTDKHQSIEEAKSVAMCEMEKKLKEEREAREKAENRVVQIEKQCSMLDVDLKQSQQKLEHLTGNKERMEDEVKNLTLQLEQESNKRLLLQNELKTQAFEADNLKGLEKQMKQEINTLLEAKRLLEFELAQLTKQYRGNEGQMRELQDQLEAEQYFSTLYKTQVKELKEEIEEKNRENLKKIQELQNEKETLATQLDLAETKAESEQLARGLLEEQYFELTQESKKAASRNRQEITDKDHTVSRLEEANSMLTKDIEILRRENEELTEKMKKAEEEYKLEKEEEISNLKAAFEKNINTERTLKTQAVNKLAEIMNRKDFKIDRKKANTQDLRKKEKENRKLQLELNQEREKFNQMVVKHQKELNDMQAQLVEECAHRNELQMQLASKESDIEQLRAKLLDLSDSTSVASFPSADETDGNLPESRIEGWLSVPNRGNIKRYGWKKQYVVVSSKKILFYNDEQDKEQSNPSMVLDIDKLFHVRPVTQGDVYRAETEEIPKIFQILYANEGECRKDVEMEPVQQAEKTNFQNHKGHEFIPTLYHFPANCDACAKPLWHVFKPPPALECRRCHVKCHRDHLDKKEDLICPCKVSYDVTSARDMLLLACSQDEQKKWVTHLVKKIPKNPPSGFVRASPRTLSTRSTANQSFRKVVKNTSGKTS
Description: as §1, §2

Row | Compound | solubility at 10 µM in culture media [1] | effectiveness in NCI-60 screening [2] | inhibition at 10 µM (ROCK2) [%] | inhibition at 10 µM (ROCK1) [%]
1 | O=C1N/C(=N\Cc2ccccc2)S/C1=C/c1c[nH]c2ncccc12 [DJ110] | insoluble; also recorded: sparingly soluble | ineffective |  | 
2 | O=C1N/C(=N\CCN2CCOCC2)S/C1=C/c1c[nH]c2ncccc12 [DJ-Morpholine] | insoluble; also recorded: sparingly soluble | ineffective |  | 
3 | O=C1N/C(=N\CCc2ccccc2)S/C1=C/c1c[nH]c2ncccc12 [DJ4] |  |  | > 98 | > 98
